Columns and labels:
[1] = molecular target: TRAF2 and NCK-interacting protein kinase (Homo sapiens) (UniProt Q9UKE5); assay: Inhibition of TNIK (unknown origin) at 10 uM after 120 mins P33 radiolabeled kinase activity assay
[2] = molecular target: Serine/threonine-protein kinase SIK1 (Homo sapiens) (UniProt P57059); assay: Inhibition of SIK1 (unknown origin) at 10 uM after 120 mins P33 radiolabeled kinase activity assay
[3] = molecular target: T1, Serine/threonine-protein kinase LATS2 (Homo sapiens) (UniProt Q9NRM7); assay: Inhibition of LATS2 (unknown origin) at 10 uM after 120 mins P33 radiolabeled kinase activity assay
T1 sequence (whole entry): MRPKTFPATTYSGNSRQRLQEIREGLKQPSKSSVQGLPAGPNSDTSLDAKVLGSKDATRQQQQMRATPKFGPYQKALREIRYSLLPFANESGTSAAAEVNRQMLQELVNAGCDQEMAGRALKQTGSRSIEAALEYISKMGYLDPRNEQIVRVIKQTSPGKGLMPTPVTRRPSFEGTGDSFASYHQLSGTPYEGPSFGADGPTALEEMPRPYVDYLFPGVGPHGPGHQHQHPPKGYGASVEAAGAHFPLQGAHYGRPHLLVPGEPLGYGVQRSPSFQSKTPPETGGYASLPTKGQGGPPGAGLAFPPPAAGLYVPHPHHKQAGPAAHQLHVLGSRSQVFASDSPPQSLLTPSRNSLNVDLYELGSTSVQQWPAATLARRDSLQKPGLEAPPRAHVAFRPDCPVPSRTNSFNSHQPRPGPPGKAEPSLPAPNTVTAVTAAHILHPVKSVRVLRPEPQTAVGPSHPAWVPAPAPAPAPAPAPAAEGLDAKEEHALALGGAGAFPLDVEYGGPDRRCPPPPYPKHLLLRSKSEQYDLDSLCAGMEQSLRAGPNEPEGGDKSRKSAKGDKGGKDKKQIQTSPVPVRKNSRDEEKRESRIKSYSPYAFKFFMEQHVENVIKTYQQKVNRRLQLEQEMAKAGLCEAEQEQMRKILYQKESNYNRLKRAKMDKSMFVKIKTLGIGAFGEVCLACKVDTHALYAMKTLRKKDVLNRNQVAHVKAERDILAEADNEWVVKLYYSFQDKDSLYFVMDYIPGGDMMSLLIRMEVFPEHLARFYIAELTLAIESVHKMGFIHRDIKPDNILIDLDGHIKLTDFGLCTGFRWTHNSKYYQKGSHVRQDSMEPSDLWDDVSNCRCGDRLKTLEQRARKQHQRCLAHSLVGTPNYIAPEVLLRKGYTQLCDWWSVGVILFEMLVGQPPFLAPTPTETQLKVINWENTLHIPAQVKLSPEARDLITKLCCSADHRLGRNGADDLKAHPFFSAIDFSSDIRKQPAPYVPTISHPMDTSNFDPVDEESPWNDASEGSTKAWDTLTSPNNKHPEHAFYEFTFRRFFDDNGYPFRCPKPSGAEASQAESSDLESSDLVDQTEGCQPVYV

[4] = molecular target: Leucine-rich repeat serine/threonine-protein kinase 2 (Homo sapiens) (UniProt Q5S007); assay: Inhibition of LRRK2 (unknown origin) at 10 uM after 120 mins P33 radiolabeled kinase activity assay
Chain of Leucine-rich repeat serine/threonine-protein kinase 2 (Homo sapiens) (Q5S007 whole entry): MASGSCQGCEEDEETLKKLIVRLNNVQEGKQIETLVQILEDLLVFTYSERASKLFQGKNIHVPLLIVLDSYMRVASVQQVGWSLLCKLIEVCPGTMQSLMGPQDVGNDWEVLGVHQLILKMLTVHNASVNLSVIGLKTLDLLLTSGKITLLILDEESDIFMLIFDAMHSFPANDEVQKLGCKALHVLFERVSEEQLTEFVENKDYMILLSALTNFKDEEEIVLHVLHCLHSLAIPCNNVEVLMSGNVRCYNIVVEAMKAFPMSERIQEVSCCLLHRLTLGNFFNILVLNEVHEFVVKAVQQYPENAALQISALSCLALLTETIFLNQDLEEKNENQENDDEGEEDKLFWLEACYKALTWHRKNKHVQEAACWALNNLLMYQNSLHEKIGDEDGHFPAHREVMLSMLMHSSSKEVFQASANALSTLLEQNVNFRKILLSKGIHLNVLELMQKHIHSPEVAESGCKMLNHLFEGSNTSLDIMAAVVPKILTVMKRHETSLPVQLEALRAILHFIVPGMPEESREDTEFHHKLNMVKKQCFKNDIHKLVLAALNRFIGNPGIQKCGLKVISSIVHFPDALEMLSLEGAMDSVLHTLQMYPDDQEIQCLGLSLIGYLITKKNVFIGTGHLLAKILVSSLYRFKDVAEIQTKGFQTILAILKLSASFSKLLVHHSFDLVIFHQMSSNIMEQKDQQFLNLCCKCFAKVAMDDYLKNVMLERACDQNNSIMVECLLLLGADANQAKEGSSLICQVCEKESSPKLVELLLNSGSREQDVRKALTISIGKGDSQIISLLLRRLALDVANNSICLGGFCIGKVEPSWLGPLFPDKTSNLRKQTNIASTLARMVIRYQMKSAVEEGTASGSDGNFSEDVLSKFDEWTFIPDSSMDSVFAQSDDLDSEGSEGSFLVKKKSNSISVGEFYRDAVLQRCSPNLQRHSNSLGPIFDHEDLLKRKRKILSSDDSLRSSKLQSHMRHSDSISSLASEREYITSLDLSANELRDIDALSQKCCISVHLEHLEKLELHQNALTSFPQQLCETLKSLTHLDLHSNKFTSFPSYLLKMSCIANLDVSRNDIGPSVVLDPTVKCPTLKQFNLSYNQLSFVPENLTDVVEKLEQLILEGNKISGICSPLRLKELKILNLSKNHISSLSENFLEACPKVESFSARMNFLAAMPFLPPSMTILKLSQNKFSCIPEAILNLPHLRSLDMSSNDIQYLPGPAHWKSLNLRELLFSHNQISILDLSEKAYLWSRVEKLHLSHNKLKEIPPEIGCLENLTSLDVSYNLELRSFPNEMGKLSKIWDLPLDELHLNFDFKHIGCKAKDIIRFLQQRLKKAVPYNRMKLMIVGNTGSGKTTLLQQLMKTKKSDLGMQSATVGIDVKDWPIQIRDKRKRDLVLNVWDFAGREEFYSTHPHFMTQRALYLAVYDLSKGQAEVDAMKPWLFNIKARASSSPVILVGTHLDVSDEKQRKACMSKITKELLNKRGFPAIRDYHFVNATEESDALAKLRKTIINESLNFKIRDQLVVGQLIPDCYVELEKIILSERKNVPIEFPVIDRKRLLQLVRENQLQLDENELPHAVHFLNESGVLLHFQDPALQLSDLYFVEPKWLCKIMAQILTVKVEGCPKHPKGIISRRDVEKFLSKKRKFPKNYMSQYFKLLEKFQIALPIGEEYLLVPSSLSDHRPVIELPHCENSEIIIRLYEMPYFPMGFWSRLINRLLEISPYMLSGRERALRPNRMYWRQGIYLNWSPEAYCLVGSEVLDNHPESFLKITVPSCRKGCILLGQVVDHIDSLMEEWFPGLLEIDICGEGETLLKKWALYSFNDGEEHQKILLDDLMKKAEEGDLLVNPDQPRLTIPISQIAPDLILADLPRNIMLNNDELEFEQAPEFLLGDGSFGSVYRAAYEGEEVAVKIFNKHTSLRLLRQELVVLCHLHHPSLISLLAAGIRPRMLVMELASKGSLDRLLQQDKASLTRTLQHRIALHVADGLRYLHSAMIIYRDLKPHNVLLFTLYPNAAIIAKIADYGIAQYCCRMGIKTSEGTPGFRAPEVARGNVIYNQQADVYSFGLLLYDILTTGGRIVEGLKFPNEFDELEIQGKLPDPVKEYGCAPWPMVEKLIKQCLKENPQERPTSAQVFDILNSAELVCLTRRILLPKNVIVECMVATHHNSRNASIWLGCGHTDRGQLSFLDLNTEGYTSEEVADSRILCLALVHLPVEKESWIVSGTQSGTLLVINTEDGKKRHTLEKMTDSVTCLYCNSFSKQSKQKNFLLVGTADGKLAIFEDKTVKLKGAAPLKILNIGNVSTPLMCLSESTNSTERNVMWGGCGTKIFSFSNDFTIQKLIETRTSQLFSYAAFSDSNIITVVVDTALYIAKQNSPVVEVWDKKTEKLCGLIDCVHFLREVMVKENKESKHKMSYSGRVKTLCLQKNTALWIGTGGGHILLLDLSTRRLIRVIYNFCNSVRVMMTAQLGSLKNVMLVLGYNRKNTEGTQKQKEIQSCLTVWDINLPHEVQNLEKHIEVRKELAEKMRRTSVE

[5] = molecular target: T2, Dual serine/threonine and tyrosine protein kinase (Homo sapiens) (UniProt Q6XUX3); assay: Inhibition of RIPK5 (unknown origin) at 10 uM after 120 mins P33 radiolabeled kinase activity assay
T2 sequence (whole entry): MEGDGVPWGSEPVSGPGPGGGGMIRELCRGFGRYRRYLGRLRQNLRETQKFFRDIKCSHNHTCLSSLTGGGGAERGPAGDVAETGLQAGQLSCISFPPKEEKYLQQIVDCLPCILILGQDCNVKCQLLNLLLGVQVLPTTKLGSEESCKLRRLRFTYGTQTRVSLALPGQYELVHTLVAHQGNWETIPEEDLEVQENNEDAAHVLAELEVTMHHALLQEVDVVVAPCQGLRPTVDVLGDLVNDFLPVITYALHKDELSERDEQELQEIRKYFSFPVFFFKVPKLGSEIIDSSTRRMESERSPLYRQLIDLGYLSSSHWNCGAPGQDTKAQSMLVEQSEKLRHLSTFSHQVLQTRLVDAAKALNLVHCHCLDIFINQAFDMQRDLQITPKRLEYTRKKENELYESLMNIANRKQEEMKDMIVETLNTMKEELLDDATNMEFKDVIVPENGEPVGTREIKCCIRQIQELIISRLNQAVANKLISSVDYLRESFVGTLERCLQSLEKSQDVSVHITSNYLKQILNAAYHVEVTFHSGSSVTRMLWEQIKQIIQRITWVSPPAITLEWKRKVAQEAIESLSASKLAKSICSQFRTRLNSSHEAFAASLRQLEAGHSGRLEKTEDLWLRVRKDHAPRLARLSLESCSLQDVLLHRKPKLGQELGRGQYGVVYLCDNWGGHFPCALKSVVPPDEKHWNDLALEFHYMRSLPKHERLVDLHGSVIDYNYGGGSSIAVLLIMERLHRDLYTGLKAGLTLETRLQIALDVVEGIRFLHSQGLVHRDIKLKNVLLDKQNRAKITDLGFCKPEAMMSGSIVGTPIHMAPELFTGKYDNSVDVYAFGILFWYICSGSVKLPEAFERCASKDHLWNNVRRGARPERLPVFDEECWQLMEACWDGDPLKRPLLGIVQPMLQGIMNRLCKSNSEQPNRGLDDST

[6] = molecular target: Platelet-derived growth factor receptor alpha (Homo sapiens) (UniProt P16234); assay: Inhibition of PDGFRalpha (unknown origin) at 10 uM after 120 mins P33 radiolabeled kinase activity assay
[7] = molecular target: T3, Myotonin-protein kinase (Homo sapiens) (UniProt Q09013); assay: Inhibition of DMPK (unknown origin) at 10 uM after 120 mins P33 radiolabeled kinase activity assay
T3 sequence (whole entry): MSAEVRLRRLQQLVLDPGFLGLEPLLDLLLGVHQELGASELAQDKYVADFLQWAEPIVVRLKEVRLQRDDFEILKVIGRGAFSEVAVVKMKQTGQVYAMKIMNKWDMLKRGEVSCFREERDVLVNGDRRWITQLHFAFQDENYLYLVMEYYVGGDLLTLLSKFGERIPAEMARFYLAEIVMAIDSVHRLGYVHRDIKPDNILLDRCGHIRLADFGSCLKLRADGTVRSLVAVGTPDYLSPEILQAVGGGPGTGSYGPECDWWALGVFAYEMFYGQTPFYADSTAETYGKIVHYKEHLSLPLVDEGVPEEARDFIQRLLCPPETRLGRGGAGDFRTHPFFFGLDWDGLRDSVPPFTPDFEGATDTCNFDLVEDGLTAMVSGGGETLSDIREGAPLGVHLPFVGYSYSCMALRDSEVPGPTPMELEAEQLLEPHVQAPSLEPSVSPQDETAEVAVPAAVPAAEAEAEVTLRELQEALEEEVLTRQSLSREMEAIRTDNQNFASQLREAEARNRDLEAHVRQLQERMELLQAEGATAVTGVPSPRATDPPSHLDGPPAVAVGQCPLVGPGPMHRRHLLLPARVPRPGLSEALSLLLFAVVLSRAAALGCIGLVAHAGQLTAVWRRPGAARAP

Chain of Serine/threonine-protein kinase SIK1 (Homo sapiens) (P57059 whole entry): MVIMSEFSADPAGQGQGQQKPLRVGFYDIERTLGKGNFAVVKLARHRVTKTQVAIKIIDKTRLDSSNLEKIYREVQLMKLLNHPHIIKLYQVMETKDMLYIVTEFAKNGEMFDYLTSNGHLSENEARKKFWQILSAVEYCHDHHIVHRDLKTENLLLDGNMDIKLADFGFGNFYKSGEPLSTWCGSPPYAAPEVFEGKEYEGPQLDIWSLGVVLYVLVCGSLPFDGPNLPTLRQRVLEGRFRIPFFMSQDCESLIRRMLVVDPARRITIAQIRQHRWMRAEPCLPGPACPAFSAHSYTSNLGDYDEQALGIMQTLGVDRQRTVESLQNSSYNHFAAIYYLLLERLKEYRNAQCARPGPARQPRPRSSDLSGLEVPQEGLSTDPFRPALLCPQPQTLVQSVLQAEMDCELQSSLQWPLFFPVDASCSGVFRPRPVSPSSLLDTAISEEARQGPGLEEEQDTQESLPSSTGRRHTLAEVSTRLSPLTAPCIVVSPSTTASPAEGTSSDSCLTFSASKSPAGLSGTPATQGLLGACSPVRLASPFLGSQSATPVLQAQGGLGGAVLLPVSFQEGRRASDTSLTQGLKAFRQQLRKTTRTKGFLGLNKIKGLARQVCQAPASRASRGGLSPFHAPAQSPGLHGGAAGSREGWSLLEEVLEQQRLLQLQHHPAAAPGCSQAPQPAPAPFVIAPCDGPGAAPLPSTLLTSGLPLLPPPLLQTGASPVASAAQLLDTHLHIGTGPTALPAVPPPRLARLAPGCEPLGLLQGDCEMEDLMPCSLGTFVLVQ
Chain of TRAF2 and NCK-interacting protein kinase (Homo sapiens) (Q9UKE5 whole entry, looked up): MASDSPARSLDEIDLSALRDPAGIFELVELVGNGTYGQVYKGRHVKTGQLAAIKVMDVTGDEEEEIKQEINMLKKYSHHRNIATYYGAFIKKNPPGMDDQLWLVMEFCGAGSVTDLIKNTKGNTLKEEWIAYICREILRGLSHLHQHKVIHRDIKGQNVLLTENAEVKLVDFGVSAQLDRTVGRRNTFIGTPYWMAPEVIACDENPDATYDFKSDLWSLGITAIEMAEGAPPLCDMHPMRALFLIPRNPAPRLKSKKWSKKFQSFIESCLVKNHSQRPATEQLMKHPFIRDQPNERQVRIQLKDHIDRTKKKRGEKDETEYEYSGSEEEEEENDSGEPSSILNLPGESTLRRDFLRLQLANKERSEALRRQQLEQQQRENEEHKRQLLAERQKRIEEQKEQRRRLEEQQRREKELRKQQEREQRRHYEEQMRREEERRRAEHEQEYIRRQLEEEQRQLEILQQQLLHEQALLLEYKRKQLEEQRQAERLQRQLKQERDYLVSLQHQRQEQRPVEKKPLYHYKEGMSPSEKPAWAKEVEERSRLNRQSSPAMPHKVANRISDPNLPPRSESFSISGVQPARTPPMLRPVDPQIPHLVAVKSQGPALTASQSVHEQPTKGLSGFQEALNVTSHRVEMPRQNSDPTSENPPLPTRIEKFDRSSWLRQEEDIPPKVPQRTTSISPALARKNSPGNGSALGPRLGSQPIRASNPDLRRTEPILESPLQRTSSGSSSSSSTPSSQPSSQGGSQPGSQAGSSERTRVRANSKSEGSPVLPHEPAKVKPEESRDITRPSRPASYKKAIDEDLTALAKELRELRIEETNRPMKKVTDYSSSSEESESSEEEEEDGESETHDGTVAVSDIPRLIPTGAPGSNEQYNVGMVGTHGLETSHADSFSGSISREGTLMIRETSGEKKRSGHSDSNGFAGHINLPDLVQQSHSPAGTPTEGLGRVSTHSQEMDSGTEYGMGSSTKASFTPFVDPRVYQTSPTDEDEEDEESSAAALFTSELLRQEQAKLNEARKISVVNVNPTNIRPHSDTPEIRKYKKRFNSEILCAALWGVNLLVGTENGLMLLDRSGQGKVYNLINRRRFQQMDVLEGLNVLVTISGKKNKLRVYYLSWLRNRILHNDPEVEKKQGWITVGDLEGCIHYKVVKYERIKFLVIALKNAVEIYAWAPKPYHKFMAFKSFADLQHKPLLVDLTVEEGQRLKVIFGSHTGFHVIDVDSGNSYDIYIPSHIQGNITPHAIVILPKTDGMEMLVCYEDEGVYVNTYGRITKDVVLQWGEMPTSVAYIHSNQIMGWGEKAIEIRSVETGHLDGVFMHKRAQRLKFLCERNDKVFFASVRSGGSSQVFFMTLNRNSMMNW

SMILES	inhibition [1]	inhibition [2]	inhibition [3]	inhibition [4]	inhibition [5]	inhibition [6]	inhibition [7]
COCCNC(=O)c1ccc2c(c1)nc(-c1cnc(-c3ccc(Cl)cc3)[nH]1)n2CCOC	48.4%	34.4%	2.32%	17.1%	-4.89%	17.2%	-6.45%
CS(=O)(=O)c1cccc(Nc2nccc(-c3sc(N4CCOCC4)nc3-c3cccc(NS(=O)(=O)c4c(F)cccc4F)c3)n2)c1	82.6%	101%	21.9%	63.4%	25%	94.1%	-2.69%
CC(C)(C)c1cc(NC(=O)Nc2ccc(Oc3ccncc3)cc2)no1	93.9%	22.6%	50.2%	81.5%	-0.31%	98.3%	-2.09%
